Earlier results as cited in patent US8617611B2, “Polymeric compositions comprising therapeutic agents in crystalline phases, and methods of forming the same” (Cordis Corporation, priority 2005, dated 2013).

solubility in dimethyl sulfoxide (DMSO) (DMSO): soluble | solubility in other solvents such as methylene chloride (methylene chloride): not soluble
SMILES: COc1ccc(/C=C/C(=O)Nc2ccccc2C(=O)O)cc1OC [Tranilast]
